“Also recorded” adds a separate entry of the source. Values belong to the compound of their own block, whether it stands above or below them.
Tests used:
COX-1 [1] = molecular target: T1, COX-1 (Rattus norvegicus, UniProt Q63921); experiment: Whole blood thromboxane B2 synthesis of treated rats (inhibition of COX-1); type: in vivo
T1 construct: whole blood thromboxane synthesis, which occurs via COX-1; from tissue; host or cells: rat whole blood (ex vivo clotting after oral dosing)
T1 sequence (Q63921 27-602): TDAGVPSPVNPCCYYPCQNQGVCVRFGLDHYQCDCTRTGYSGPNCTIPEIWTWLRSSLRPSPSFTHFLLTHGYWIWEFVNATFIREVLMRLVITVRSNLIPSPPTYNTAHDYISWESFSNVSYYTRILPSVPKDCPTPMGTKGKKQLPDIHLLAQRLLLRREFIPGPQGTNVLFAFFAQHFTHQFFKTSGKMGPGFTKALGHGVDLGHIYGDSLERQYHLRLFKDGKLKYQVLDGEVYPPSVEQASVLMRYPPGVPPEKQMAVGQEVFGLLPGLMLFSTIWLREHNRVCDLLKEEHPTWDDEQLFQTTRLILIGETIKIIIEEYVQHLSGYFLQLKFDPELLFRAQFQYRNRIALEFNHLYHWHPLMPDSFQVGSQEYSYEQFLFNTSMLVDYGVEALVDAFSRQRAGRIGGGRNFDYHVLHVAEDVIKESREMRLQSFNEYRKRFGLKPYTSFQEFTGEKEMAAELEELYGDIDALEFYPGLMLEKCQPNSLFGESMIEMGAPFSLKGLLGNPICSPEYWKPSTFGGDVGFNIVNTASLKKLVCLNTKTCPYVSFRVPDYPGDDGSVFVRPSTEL
Experimental: Inhibition of COX-1 was also measured using the same rats. […] The samples were then centrifuged for 3 min at 9,000 g and the supernatant was frozen at −80° C. for subsequent measurement of thromboxane B2 concentrations using a specific ELISA.
Inhibition of COX-1 was also measured using the same rats, using the same method as described for FIG. 4. […]

[2] = Gastric damage (gastric damage score) in rats after oral dosing; details: rats fasted 18 h; oral; doses equimolar to diclofenac 20 mg/kg; 3 h after administration; FIG. 1
[3] = Systolic blood pressure in hypertensive (L-NAME) rats; details: 30 μmol/kg intraperitoneal bolus; recorded for 60 minutes; FIG. 14
[4] = test system: gastric prostaglandin E2 (PGE2) synthesis (COX-1 and/or COX-2); experiment: Gastric prostaglandin E2 (PGE2) synthesis in excised rat gastric tissue; type: in vivo; details: oral; doses equimolar to diclofenac 20 mg/kg; tissue taken 3 h after administration; FIG. 2
Experimental: Briefly, the tissue samples were minced with scissors for 30 min, then placed in 1 mL of sodium phosphate buffer (pH 7.4) and placed in a shaking water bath (37° C.) for 20 min.

[5] = test system: leukocyte adherence to the vascular endothelium; experiment: Leukocyte adherence to the vascular endothelium, intravital microscopy of mesenteric venules; details: intragastric 30 μmol/kg; for Number of Adherent Leukocytes: mean ± SEM
Experimental: Briefly, post-capillary mesenteric venules in anesthetized rats are examined under a light microscope. […] All test compounds were prepared in a vehicle of 1% carboxymethylcellulose. Changes in leukocyte adherence within the venule were recorded with a video camera attached to the microscope, and quantification of the numbers of adherent leukocytes was performed in a blind manner through evaluation of the videotaped images. Each group consisted of 5 male, Wistar rats weighing 150-175 g. A leukocyte was considered “adherent” if it remained stationary for 30 seconds or more (results below are expressed as the mean ± SEM).

[6] = Small intestinal injury after repeated administration; details: 50 μmol/kg at time 0, 12 and 24 hours; assessed 24 h after final dose; FIG. 5
[7] = Hematocrit before and after repeated administration; type: in vivo, rat; details: 50 μmol/kg at time 0, 12 and 24 hours; start versus 24 h after final dose; FIG. 6
Excerpt: Another group of rats received vehicle (1% carboxymethylcellulose).

COX-2 = molecular target: T2, COX-2 (Rattus norvegicus, UniProt P35355); experiment: Rat airpouch assay, exudate PGE2 after zymosan (inhibition of COX-2 in vivo)
T2 construct: from tissue; host or cells: rat subcutaneous airpouch (in vivo, zymosan-induced inflammation)
T2 sequence (P35355 18-604): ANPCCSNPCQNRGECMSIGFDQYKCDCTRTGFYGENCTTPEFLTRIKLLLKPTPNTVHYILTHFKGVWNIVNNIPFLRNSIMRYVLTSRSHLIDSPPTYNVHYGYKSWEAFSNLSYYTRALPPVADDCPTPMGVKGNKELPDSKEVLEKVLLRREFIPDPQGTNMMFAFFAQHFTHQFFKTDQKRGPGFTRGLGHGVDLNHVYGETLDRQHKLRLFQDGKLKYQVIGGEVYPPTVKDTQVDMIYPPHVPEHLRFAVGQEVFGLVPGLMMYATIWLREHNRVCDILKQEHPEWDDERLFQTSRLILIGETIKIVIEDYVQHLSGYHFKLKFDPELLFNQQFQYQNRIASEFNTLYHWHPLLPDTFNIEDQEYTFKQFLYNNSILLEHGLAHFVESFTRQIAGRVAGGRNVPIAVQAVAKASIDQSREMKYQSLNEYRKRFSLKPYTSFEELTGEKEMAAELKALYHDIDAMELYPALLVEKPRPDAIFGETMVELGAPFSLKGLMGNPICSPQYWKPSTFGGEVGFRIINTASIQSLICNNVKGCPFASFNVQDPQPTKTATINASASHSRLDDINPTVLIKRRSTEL
Experimental: Briefly, a subcutaneous “pouch” is created by repeated injections of air over several days. Once established, inflammation in the pouch can be induced by injection of 1 mL of 1% zymosan. […] Another group of 5 rats was treated with the vehicle, but received an injection of 0.9% sterile saline into the pouch rather than zymosan. […]
Each group consisted of 5 rats.

[8] = Incidence of gastric damage at the end of the leukocyte adherence experiment; details: intragastric 30 μmol/kg; for Percent Incidence of Gastric Damage: end of experiment
Experimental: Briefly, post-capillary mesenteric venules in anesthetized rats are examined under a light microscope. […] All test compounds were prepared in a vehicle of 1% carboxymethylcellulose. Changes in leukocyte adherence within the venule were recorded with a video camera attached to the microscope, and quantification of the numbers of adherent leukocytes was performed in a blind manner through evaluation of the videotaped images. Each group consisted of 5 male, Wistar rats weighing 150-175 g. A leukocyte was considered “adherent” if it remained stationary for 30 seconds or more (results below are expressed as the mean ± SEM). At the end of the experiment the stomach was opened and examined for the presence of gastric damage, under a dissecting microscope.

[9] = Carrageenan hindpaw edema model; type: in vivo, rat; details: 30 min prior to carrageenan
Experimental: Male, Wistar rats weighing 175-200 g were given the test compounds orally 30 min prior to subplantar injection of 100 ul of 1% lambda carrageenan. Paw volume measured using an Ugo Basile hydroplethysmometer prior to carrageenan injection and at 1-h intervals thereafter for 5 h.

COX-1 [10] = molecular target: T3, COX-1 (Homo sapiens, UniProt P23219); experiment: Human whole blood thromboxane B2 synthesis in vitro; type: cell-based; details: FIG. 12; for inhibition of COX-1 activity (thromboxane B2 synthesis by human blood): 0.1, 0.3, 1 or 3 μM, 45 min 37° C.
T3 construct: from tissue; host or cells: human whole blood from healthy volunteers
Experimental: Aliquots (0.5 mL) of blood from healthy human volunteers were added to glass tubes containing 10 uL of methanol alone, or one of the test drugs prepared such that the final concentration would be 0.1, 0.3, 1 or 3 μM. The tubes were placed in water bath (37° C.) with gentle shaking for 45 min, after which they were centrifuged (1,000×g) for 10 minutes. The concentration of thromboxane B2 in each sample was then determined using a specific ELISA, as in the studies shown in FIG. 4.

[11] = Healing of acetic acid-induced gastric ulcers; type: in vivo, rat
Experimental: Gastric ulcers were induced via serosal application of acetic acid, as described by Elliott et al., A nitric oxide-releasing nonsteroidal anti-inflammatory drug accelerates gastric ulcer healing in rats. Gastroenterology 1995; 109: 524-530. […] After 4 days of such treatment, the rats were euthanized and the stomach was excised and photographed. The area (in mm^2) of the ulcer was determined planimetrically by an individual unaware of the treatments given to the rats. In a subgroup of 5 rats euthanized 3 days after induction of gastric ulcers (i.e., prior to initiation of drug treatment), the mean surface area of the ulcers was 24±2 mm^2.

T3 sequence (P23219 24-599): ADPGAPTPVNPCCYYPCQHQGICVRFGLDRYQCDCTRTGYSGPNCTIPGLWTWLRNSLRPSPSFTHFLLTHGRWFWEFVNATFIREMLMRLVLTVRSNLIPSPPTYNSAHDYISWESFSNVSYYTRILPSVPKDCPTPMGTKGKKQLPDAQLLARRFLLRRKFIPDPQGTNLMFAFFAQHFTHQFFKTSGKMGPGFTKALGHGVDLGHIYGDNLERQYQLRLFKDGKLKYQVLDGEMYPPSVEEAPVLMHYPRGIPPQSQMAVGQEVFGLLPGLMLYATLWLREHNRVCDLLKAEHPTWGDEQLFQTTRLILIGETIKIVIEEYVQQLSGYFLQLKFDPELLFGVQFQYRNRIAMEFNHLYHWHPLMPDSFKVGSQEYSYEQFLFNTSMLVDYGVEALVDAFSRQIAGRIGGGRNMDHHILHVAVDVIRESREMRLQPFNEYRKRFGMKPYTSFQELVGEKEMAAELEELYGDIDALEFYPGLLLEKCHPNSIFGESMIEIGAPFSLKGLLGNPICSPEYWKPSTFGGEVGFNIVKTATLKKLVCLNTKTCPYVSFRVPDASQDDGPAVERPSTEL

- inhibition at 4.8 mg/kg (COX-1 [1]; rat, po): > 80%
- Number of Adherent Leukocytes [5]: 3.0 ± 0.5 per 100 μm vessel length
- hematocrit [7]: no significant effect on hematocrit
SMILES: O=C(Cc1ccccc1Nc1c(Cl)cccc1Cl)Oc1ccc(-c2cc(=S)ss2)cc1 [Compound II, [2-(2,6-dichloro-phenylamino)-phenyl]-acetic acid 4-(5-thioxo-5H-[1,2]dithiol-3-yl)-phenyl ester]
- gastric damage score [2]: no gastric damage was seen; also recorded: elicited significantly less gastric damage than diclofenac
- change in systolic blood pressure [3]: did not increase systolic blood pressure as compared to the vehicle-treated group; also recorded: significantly lower than that induced by diclofenac and naproxen, respectively
- gastric PGE2 synthesis [4]: significantly reduced the amount of gastric PGE2 synthesis; also recorded: near-complete
- number of adherent leukocytes compared to the parent NSAID alone [5]: significantly reduced the number of adherent leukocytes per 100 μm vessel length
- extent of small intestinal damage, less than in rats treated with diclofenac [6]: > 90%
- concentrations of PGE2 within the pouch (COX-2) (COX-2; oral 30 min before injection, diclofenac 3 mg/kg, Compound II 4.8 mg/kg, Compound XVII 4.1 mg/kg, 1% zymosan, FIG. 7): markedly reduced the concentrations of PGE2 within the pouch
- percent incidence of gastric damage compared to the parent NSAID alone [8]: significantly reduced the percent incidence of gastric damage when compared to diclofenac alone
- Percent Incidence of Gastric Damage [8]: 0%
- paw edema (paw volume increase) ([9]; oral, dose equimolar to diclofenac at 3 mg/kg, compared with diclofenac, FIGS. 9, 10, 3 mg/kg): reduced paw edema to a greater extent; also recorded: comparable to the effect of diclofenac at a dose of 10 mg/kg

SMILES: COc1ccc2c(c1)c(CC(=O)Oc1ccc(-c3cc(=S)ss3)cc1)c(C)n2C(=O)c1ccc(Cl)cc1 [Compound IV, [1-(4-Chloro-benzoyl)-5-methoxy-2-methyl-1-H-indol-3-yl]-acetic acid 4-(5-thioxo-5-H-[1,2]dithiol-3-yl)-phenyl ester]
- Number of Adherent Leukocytes [5]: 3.6 ± 0.7 per 100 μm vessel length
- inhibition of COX-1 activity (thromboxane B2 synthesis by human blood) (COX-1 [10]): concentration-dependent inhibition of COX-1 activity as compared to the vehicle-treated group
- Percent Incidence of Gastric Damage [8]: 20%

SMILES: COc1ccc2c(c1)c(CC(=O)Oc1ccc(C(N)=S)cc1)c(C)n2C(=O)c1ccc(Cl)cc1 [Compound XIX, [1-(4-Chloro-benzoyl)-5-methoxy-2-methyl-1-H-indol-3-yl]-acetic acid 4-thiocarbamoyl-phenyl ester]
- inhibition of COX-1 activity (thromboxane B2 synthesis by human blood) (COX-1 [10]): concentration-dependent inhibition of COX-1 activity as compared to the vehicle-treated group; also recorded: significantly better at inhibiting thromboxane B2 synthesis than the ADT-OH equivalent, Compound IV
- inhibition of COX-1 activity compared with indomethacin (COX-1 [10]; concentrations of 1 and 3 μM): significantly greater (*p<0.05) inhibition of COX-1 activity than that produced by indomethacin
- Percent Incidence of Gastric Damage [8]: 0%

- hematocrit [7]: profound reduction of hematocrit
SMILES: O=C(O)Cc1ccccc1Nc1c(Cl)cccc1Cl [Diclofenac, diclofenac, reference compound]
- change in systolic blood pressure [3]: caused a substantial increase in systolic blood pressure
- small intestinal damage (erosions/ulcers) [6]: extensive erosions and ulcers in the small intestine
- paw edema (paw volume increase) ([9]; oral 1, 3 or 10 mg/kg, FIG. 9): dose-dependently reduced paw edema
- gastric ulcer healing (ulcer area) ([11]; 30 μmol/kg twice-daily orally for 4 days, starting 3 days after ulcer induction, FIG. 13): exhibited similar degrees of healing

SMILES: NC(=S)c1ccc(O)cc1 [TBZ, 4-hydroxythiobenzamide, reference compound]
- COX-1 activity (whole blood thromboxane synthesis) (COX-1 [1]; hydrogen sulfide releasing moieties alone, dose not given, FIG. 8): neither of the hydrogen sulfide releasing moieties (ADT-OH and TBZ) significantly affected COX-1 activity
- gastric PGE2 synthesis [4]: did not reduce gastric PGE2 synthesis when compared to vehicle
- COX-2 activity (exudate PGE2) (COX-2; hydrogen sulfide releasing moieties alone, dose not given): neither of the hydrogen sulfide releasing moieties (ADT-OH and TBZ) significantly affected COX-2 activity
- gastric ulcer healing (ulcer area) ([11]; hydrogen sulfide releasing moiety alone, dose not given): did not significantly affect the healing of gastric ulcers as compared to the vehicle-treated group

Source: patent publication US7741359B2, “Hydrogen sulfide derivatives of non-steroidal anti-inflammatory drugs” (Antibe Therapeutics Inc., priority 2006, dated 2010)
